According to the NIST ThermoML archive (doi:10.1021/je900482x):
± gives the expanded uncertainty stated by the source.

Test: isobaric coefficient of expansion
Conditions: 338.15 K; 5000 kPa; Liquid; Microcalorimeter
In the case of `CCn1cc[n+](C)c1.F[B-](F)(F)F` [1-ethyl-3-methylimidazolium tetrafluoroborate], the “isobaric coefficient of expansion” value is reported as 0.000582 ± 1.4e-05 1/K. In the case of `CCCCCC[n+]1ccn(C)c1.O=S(=O)([N-]S(=O)(=O)C(F)(F)F)C(F)(F)F`, the “isobaric coefficient of expansion” value is reported as 0.000649 ± 1.6e-05 1/K. In the case of `CCCCCCCC[n+]1ccn(C)c1.F[B-](F)(F)F` [1-methyl-3-octylimidazolium tetrafluoroborate], the “isobaric coefficient of expansion” value is reported as 0.000591 ± 1.2e-05 1/K. In the case of `CCCC[n+]1cccc(C)c1.F[B-](F)(F)F` [1-butyl-3-methylpyridinium tetrafluoroborate], the “isobaric coefficient of expansion” value is reported as 0.000571 ± 1.4e-05 1/K. For `CCCCCCn1cc[n+](C)c1.F[B-](F)(F)F` [1-hexyl-3-methylimidazolium tetrafluoroborate], the “isobaric coefficient of expansion” value was 0.000591 ± 1.4e-05 1/K. In the case of `CCn1cc[n+](C)c1.O=S(=O)([N-]S(=O)(=O)C(F)(F)F)C(F)(F)F`, the “isobaric coefficient of expansion” value is reported as 0.000643 ± 1.6e-05 1/K.

Same assay, conditions: 338.15 K; 10000 kPa; Liquid; Microcalorimeter
In the case of `CCn1cc[n+](C)c1.F[B-](F)(F)F` [1-ethyl-3-methylimidazolium tetrafluoroborate], the “isobaric coefficient of expansion” value is reported as 0.000574 ± 1.4e-05 1/K. For `CCCCCC[n+]1ccn(C)c1.O=S(=O)([N-]S(=O)(=O)C(F)(F)F)C(F)(F)F`, the “isobaric coefficient of expansion” value was 0.000637 ± 1.6e-05 1/K. For `CCCCCCCC[n+]1ccn(C)c1.F[B-](F)(F)F` [1-methyl-3-octylimidazolium tetrafluoroborate], the “isobaric coefficient of expansion” value was 0.000584 ± 1.2e-05 1/K. In the case of `CCCC[n+]1cccc(C)c1.F[B-](F)(F)F` [1-butyl-3-methylpyridinium tetrafluoroborate], the “isobaric coefficient of expansion” value is reported as 0.000567 ± 1.4e-05 1/K. In the case of `CCCCCCn1cc[n+](C)c1.F[B-](F)(F)F` [1-hexyl-3-methylimidazolium tetrafluoroborate], the “isobaric coefficient of expansion” value is reported as 0.000584 ± 1.4e-05 1/K. In the case of `CCn1cc[n+](C)c1.O=S(=O)([N-]S(=O)(=O)C(F)(F)F)C(F)(F)F`, the “isobaric coefficient of expansion” value is reported as 0.000633 ± 1.6e-05 1/K.

Same assay, conditions: 338.15 K; 15000 kPa; Liquid; Microcalorimeter
With `CCn1cc[n+](C)c1.F[B-](F)(F)F` [1-ethyl-3-methylimidazolium tetrafluoroborate] the “isobaric coefficient of expansion” value was 0.000569 ± 1.4e-05 1/K. For `CCCCCC[n+]1ccn(C)c1.O=S(=O)([N-]S(=O)(=O)C(F)(F)F)C(F)(F)F`, the “isobaric coefficient of expansion” value was 0.000627 ± 1.5e-05 1/K. In the case of `CCCCCCCC[n+]1ccn(C)c1.F[B-](F)(F)F` [1-methyl-3-octylimidazolium tetrafluoroborate], the “isobaric coefficient of expansion” value is reported as 0.000575 ± 1.2e-05 1/K. For `CCCC[n+]1cccc(C)c1.F[B-](F)(F)F` [1-butyl-3-methylpyridinium tetrafluoroborate], the “isobaric coefficient of expansion” value was 0.000562 ± 1.4e-05 1/K. In the case of `CCCCCCn1cc[n+](C)c1.F[B-](F)(F)F` [1-hexyl-3-methylimidazolium tetrafluoroborate], the “isobaric coefficient of expansion” value is reported as 0.000575 ± 1.4e-05 1/K. For `CCn1cc[n+](C)c1.O=S(=O)([N-]S(=O)(=O)C(F)(F)F)C(F)(F)F`, the “isobaric coefficient of expansion” value was 0.000624 ± 1.5e-05 1/K.

Same assay, conditions: 338.15 K; 20000 kPa; Liquid; Microcalorimeter
In the case of `CCn1cc[n+](C)c1.F[B-](F)(F)F` [1-ethyl-3-methylimidazolium tetrafluoroborate], the “isobaric coefficient of expansion” value is reported as 0.00056 ± 1.4e-05 1/K. With `CCCCCC[n+]1ccn(C)c1.O=S(=O)([N-]S(=O)(=O)C(F)(F)F)C(F)(F)F` the “isobaric coefficient of expansion” value was 0.000616 ± 1.5e-05 1/K. For `CCCCCCCC[n+]1ccn(C)c1.F[B-](F)(F)F` [1-methyl-3-octylimidazolium tetrafluoroborate], the “isobaric coefficient of expansion” value was 0.000567 ± 1.1e-05 1/K. For `CCCC[n+]1cccc(C)c1.F[B-](F)(F)F` [1-butyl-3-methylpyridinium tetrafluoroborate], the “isobaric coefficient of expansion” value was 0.000554 ± 1.4e-05 1/K. With `CCCCCCn1cc[n+](C)c1.F[B-](F)(F)F` [1-hexyl-3-methylimidazolium tetrafluoroborate] the “isobaric coefficient of expansion” value was 0.000567 ± 1.4e-05 1/K. With `CCn1cc[n+](C)c1.O=S(=O)([N-]S(=O)(=O)C(F)(F)F)C(F)(F)F` the “isobaric coefficient of expansion” value was 0.000614 ± 1.5e-05 1/K.

Same assay, conditions: 338.15 K; 25000 kPa; Liquid; Microcalorimeter
With `CCn1cc[n+](C)c1.F[B-](F)(F)F` [1-ethyl-3-methylimidazolium tetrafluoroborate] the “isobaric coefficient of expansion” value was 0.000553 ± 1.4e-05 1/K. With `CCCCCC[n+]1ccn(C)c1.O=S(=O)([N-]S(=O)(=O)C(F)(F)F)C(F)(F)F` the “isobaric coefficient of expansion” value was 0.000605 ± 1.5e-05 1/K. In the case of `CCCCCCCC[n+]1ccn(C)c1.F[B-](F)(F)F` [1-methyl-3-octylimidazolium tetrafluoroborate], the “isobaric coefficient of expansion” value is reported as 0.000558 ± 1.1e-05 1/K. For `CCCC[n+]1cccc(C)c1.F[B-](F)(F)F` [1-butyl-3-methylpyridinium tetrafluoroborate], the “isobaric coefficient of expansion” value was 0.000549 ± 1.3e-05 1/K. In the case of `CCCCCCn1cc[n+](C)c1.F[B-](F)(F)F` [1-hexyl-3-methylimidazolium tetrafluoroborate], the “isobaric coefficient of expansion” value is reported as 0.000558 ± 1.4e-05 1/K. With `CCn1cc[n+](C)c1.O=S(=O)([N-]S(=O)(=O)C(F)(F)F)C(F)(F)F` the “isobaric coefficient of expansion” value was 0.000604 ± 1.5e-05 1/K.

Same assay, conditions: 338.15 K; 30000 kPa; Liquid; Microcalorimeter
With `CCn1cc[n+](C)c1.F[B-](F)(F)F` [1-ethyl-3-methylimidazolium tetrafluoroborate] the “isobaric coefficient of expansion” value was 0.000549 ± 1.3e-05 1/K. In the case of `CCCCCC[n+]1ccn(C)c1.O=S(=O)([N-]S(=O)(=O)C(F)(F)F)C(F)(F)F`, the “isobaric coefficient of expansion” value is reported as 0.000597 ± 1.5e-05 1/K. With `CCCCCCCC[n+]1ccn(C)c1.F[B-](F)(F)F` [1-methyl-3-octylimidazolium tetrafluoroborate] the “isobaric coefficient of expansion” value was 0.000553 ± 1.1e-05 1/K. With `CCCC[n+]1cccc(C)c1.F[B-](F)(F)F` [1-butyl-3-methylpyridinium tetrafluoroborate] the “isobaric coefficient of expansion” value was 0.000545 ± 1.3e-05 1/K. In the case of `CCCCCCn1cc[n+](C)c1.F[B-](F)(F)F` [1-hexyl-3-methylimidazolium tetrafluoroborate], the “isobaric coefficient of expansion” value is reported as 0.000553 ± 1.4e-05 1/K. For `CCn1cc[n+](C)c1.O=S(=O)([N-]S(=O)(=O)C(F)(F)F)C(F)(F)F`, the “isobaric coefficient of expansion” value was 0.000598 ± 1.5e-05 1/K.

Same assay, conditions: 338.15 K; 35000 kPa; Liquid; Microcalorimeter
In the case of `CCn1cc[n+](C)c1.F[B-](F)(F)F` [1-ethyl-3-methylimidazolium tetrafluoroborate], the “isobaric coefficient of expansion” value is reported as 0.00054 ± 1.3e-05 1/K. For `CCCCCC[n+]1ccn(C)c1.O=S(=O)([N-]S(=O)(=O)C(F)(F)F)C(F)(F)F`, the “isobaric coefficient of expansion” value was 0.000588 ± 1.4e-05 1/K. For `CCCCCCCC[n+]1ccn(C)c1.F[B-](F)(F)F` [1-methyl-3-octylimidazolium tetrafluoroborate], the “isobaric coefficient of expansion” value was 0.000544 ± 1.1e-05 1/K. With `CCCC[n+]1cccc(C)c1.F[B-](F)(F)F` [1-butyl-3-methylpyridinium tetrafluoroborate] the “isobaric coefficient of expansion” value was 0.000539 ± 1.3e-05 1/K. With `CCCCCCn1cc[n+](C)c1.F[B-](F)(F)F` [1-hexyl-3-methylimidazolium tetrafluoroborate] the “isobaric coefficient of expansion” value was 0.000544 ± 1.3e-05 1/K. With `CCn1cc[n+](C)c1.O=S(=O)([N-]S(=O)(=O)C(F)(F)F)C(F)(F)F` the “isobaric coefficient of expansion” value was 0.000588 ± 1.4e-05 1/K.

Same assay, conditions: 338.15 K; 40000 kPa; Liquid; Microcalorimeter
For `CCn1cc[n+](C)c1.F[B-](F)(F)F` [1-ethyl-3-methylimidazolium tetrafluoroborate], the “isobaric coefficient of expansion” value was 0.000534 ± 1.3e-05 1/K. For `CCCCCC[n+]1ccn(C)c1.O=S(=O)([N-]S(=O)(=O)C(F)(F)F)C(F)(F)F`, the “isobaric coefficient of expansion” value was 0.00058 ± 1.4e-05 1/K. For `CCCCCCCC[n+]1ccn(C)c1.F[B-](F)(F)F` [1-methyl-3-octylimidazolium tetrafluoroborate], the “isobaric coefficient of expansion” value was 0.000538 ± 1.1e-05 1/K. In the case of `CCCC[n+]1cccc(C)c1.F[B-](F)(F)F` [1-butyl-3-methylpyridinium tetrafluoroborate], the “isobaric coefficient of expansion” value is reported as 0.000536 ± 1.3e-05 1/K. For `CCCCCCn1cc[n+](C)c1.F[B-](F)(F)F` [1-hexyl-3-methylimidazolium tetrafluoroborate], the “isobaric coefficient of expansion” value was 0.000538 ± 1.3e-05 1/K. In the case of `CCn1cc[n+](C)c1.O=S(=O)([N-]S(=O)(=O)C(F)(F)F)C(F)(F)F`, the “isobaric coefficient of expansion” value is reported as 0.000582 ± 1.4e-05 1/K.

Same assay, conditions: 338.15 K; 45000 kPa; Liquid; Microcalorimeter
In the case of `CCn1cc[n+](C)c1.F[B-](F)(F)F` [1-ethyl-3-methylimidazolium tetrafluoroborate], the “isobaric coefficient of expansion” value is reported as 0.000529 ± 1.3e-05 1/K. For `CCCCCC[n+]1ccn(C)c1.O=S(=O)([N-]S(=O)(=O)C(F)(F)F)C(F)(F)F`, the “isobaric coefficient of expansion” value was 0.000571 ± 1.4e-05 1/K. With `CCCCCCCC[n+]1ccn(C)c1.F[B-](F)(F)F` [1-methyl-3-octylimidazolium tetrafluoroborate] the “isobaric coefficient of expansion” value was 0.000532 ± 1.1e-05 1/K. In the case of `CCCC[n+]1cccc(C)c1.F[B-](F)(F)F` [1-butyl-3-methylpyridinium tetrafluoroborate], the “isobaric coefficient of expansion” value is reported as 0.00053 ± 1.3e-05 1/K. For `CCCCCCn1cc[n+](C)c1.F[B-](F)(F)F` [1-hexyl-3-methylimidazolium tetrafluoroborate], the “isobaric coefficient of expansion” value was 0.000532 ± 1.3e-05 1/K. In the case of `CCn1cc[n+](C)c1.O=S(=O)([N-]S(=O)(=O)C(F)(F)F)C(F)(F)F`, the “isobaric coefficient of expansion” value is reported as 0.000574 ± 1.4e-05 1/K.

Same assay, conditions: 338.15 K; 50000 kPa; Liquid; Microcalorimeter
With `CCn1cc[n+](C)c1.F[B-](F)(F)F` [1-ethyl-3-methylimidazolium tetrafluoroborate] the “isobaric coefficient of expansion” value was 0.000525 ± 1.3e-05 1/K. In the case of `CCCCCC[n+]1ccn(C)c1.O=S(=O)([N-]S(=O)(=O)C(F)(F)F)C(F)(F)F`, the “isobaric coefficient of expansion” value is reported as 0.000567 ± 1.4e-05 1/K. For `CCCCCCCC[n+]1ccn(C)c1.F[B-](F)(F)F` [1-methyl-3-octylimidazolium tetrafluoroborate], the “isobaric coefficient of expansion” value was 0.000528 ± 1.1e-05 1/K. For `CCCC[n+]1cccc(C)c1.F[B-](F)(F)F` [1-butyl-3-methylpyridinium tetrafluoroborate], the “isobaric coefficient of expansion” value was 0.000529 ± 1.3e-05 1/K. With `CCCCCCn1cc[n+](C)c1.F[B-](F)(F)F` [1-hexyl-3-methylimidazolium tetrafluoroborate] the “isobaric coefficient of expansion” value was 0.000528 ± 1.3e-05 1/K. In the case of `CCn1cc[n+](C)c1.O=S(=O)([N-]S(=O)(=O)C(F)(F)F)C(F)(F)F`, the “isobaric coefficient of expansion” value is reported as 0.000569 ± 1.4e-05 1/K.
